Laboratory results: patent EP0123700A1, “Substituted picolinic acids, processes for their preparation, their use, and pharmaceutical preparations containing them” (Byk Gulden Lomberg Chemische Fabrik GmbH, priority 1983, dated 1984)
Several values for one entry are separate records, joined by “and”; a condition that tells them apart may be missing. Identical values can stand only once.

Legend:
[1] = test system: genetisch hypertonen Ratten; assay: Antihypertensive effect: systolic blood pressure (tail cuff) in conscious genetically hypertensive rats, oral dosing once daily on four consecutive days; assay type: in vivo, Ratten (Stamm SHR/N/Ibm/Bm); conditions: for Th.W. (Therapeutische Wirksamkeit): mean of quotient over the doses of Table I
Experimental: Zur Bestimmung der äntihypertensiven Wirkung werden die unten aufgeführten Verbindungen in den angegebenen Dosen an vier aufeinander folgenden Tagen an je 6 Ratten (Stamm SHR/N/Ibm/Bm, ♂, 250-350 g) mit genetisch bedingtem Hochdruck (RR > 180 mmHg) täglich einmal mittels Schlundsonde verabfolgt. Die Messung des Blutdrucks erfolgt jeweils 2, 6 und gegebenenfalls 24 Stunden nach Substanzgabe.
Die Blutdruckmessung wird in einer Wärmekammer bei 36°C vorgenommen, um eine bessere Durchblutung der Schwanzarterie zu erreichen. Hierzu werden die Tiere in perforierte Lochblechkäfige verbracht und 20 - 40 Min. nach Beginn der Aufwärmung gemessen. Zur Messung des systolischen arteriellen Drucks wird eine ringförmige Manschette mit aufblasbarer Gummimembran zur Unterbindung der Durchblutung und ein ringförmiger Piezökristallaufnehmer zur Erfassung der Pulswellen auf den Schwanz aufgeschoben. Nach erfolgter Unterbindung des Blutstroms in der Schwanzarterie wird der Manschettendruck kontinuierlich reduziert. […] Pulssignale und Druckverlauf werden zur Auswertung graphisch aufgezeichnet.
Zur Gewöhnung an den Meßvorgang werden die Tiere vor Substanzprüfung 14 Tage traniniert. In der zweiten Trainingswoche werden Blutdruck-Vorwerte erhoben. Tiergruppen, die Substanz erhälten, werden gegen eine Kontrollgruppe geprüft.

[2] = Oral toxicity (LD50) in mice, 14 days observation; assay type: in vivo; conditions: mouse, in vivo, N=5/dose
Source text: (§1) Die Toxizitätsuntersuchungen werden an weiblichen NMRI-Mäusen (Körpergewicht 22 - 26 g) durchgeführt. Die Tiere (5 Tiere pro Dosis) erhalten Futter und Wasser ad libitum. Verschiedene Dosen der Substanzen werden oral verabreicht. Die Beobachtungsdauer beträgt 14 Tage. Die LD50, d.h. die Dosis bei der 50% der Tiere sterben, wird aus der Dosiswirkungskurve graphisch ermittelt.

[3] = test system: weiblichen NMRI-Mäusen; assay: Oral toxicity (LD50) in mice, 14 days observation; assay type: in vivo; conditions: N=5/dose
Source text: as §1

[4] = day 1 (2h, 6h and 24h Th.W. averaged), normalised to Th.W. Fusarsäure = 1
[5] = day 2, normalised to Th.W. Fusarsäure = 1
[6] = day 3 (6h and 24h Th.W. averaged), normalised to Th.W. Fusarsäure = 1
[7] = day 4 (2h and 6h Th.W. averaged), normalised to Th.W. Fusarsäure = 1

Structure (SMILES): CCCCc1ccc(C(=O)OCCCN(C)C)nc1 [lfd. Nr. 3, 5-n-Butylpyridin-2-carbonsäure-(3-dimethylaminopropyl)-ester]
- BP (%-Änderungen) ([1]; 20,0 mg/kg p.o., day 1, 2h, listed as 2): -5% and -8%
- BP (%-Änderungen) ([1]; 20,0 mg/kg p.o., day 1, 6h, listed as 2): -10% and -13%
- BP (%-Änderungen) ([1]; 20,0 mg/kg p.o., day 1, 24h): 0%
- BP (%-Änderungen) ([1]; 20,0 mg/kg p.o., day 2, 6h, listed as 2): -6% and -9%
- BP (%-Änderungen) ([1]; 20,0 mg/kg p.o., day 3, 6h, listed as 2): -4% and -7%
- BP (%-Änderungen) ([1]; 20,0 mg/kg p.o., day 3, 24h): -2%
- BP (%-Änderungen) ([1]; 20,0 mg/kg p.o., day 4, 2h, listed as 2): -5% and -8%
- BP (%-Änderungen) ([1]; 20,0 mg/kg p.o., day 4, 6h, listed as 2): -7% and -10%
- Th.I. Fusarsäure = 1 [1, 4]: 4,3
- Th.W. (Therapeutische Wirksamkeit) ([1]; day 1, 2h): -5,6 %-Änderung BP / µmol/kg x 100
- Th.W. (Therapeutische Wirksamkeit) ([1]; day 1, 6h): -10,3 %-Änderung BP / µmol/kg x 100
- Th.W. (Therapeutische Wirksamkeit) ([1]; day 1, 24h): 1,3 %-Änderung BP / µmol/kg x 100
- Th.W. (Therapeutische Wirksamkeit) ([1]; day 2, 6h): -6,7 %-Änderung BP / µmol/kg x 100
- Th.I. Fusarsäure = 1 [1, 5]: 5,2
- Th.I. Fusarsäure = 1 [1, 6]: 2,5
- Th.W. (Therapeutische Wirksamkeit) ([1]; day 3, 6h): -4,5 %-Änderung BP / µmol/kg x 100
- Th.W. (Therapeutische Wirksamkeit) ([1]; day 3, 24h): 0,4 %-Änderung BP / µmol/kg x 100
- Th.I. Fusarsäure = 1 [1, 7]: 1,1
- Th.W. (Therapeutische Wirksamkeit) ([1]; day 4, 2h): -5,6 %-Änderung BP / µmol/kg x 100
- Th.W. (Therapeutische Wirksamkeit) ([1]; day 4, 6h): -7,6 %-Änderung BP / µmol/kg x 100

Structure (SMILES): CCN(CC)CCCNC(=O)c1ccc(-c2ccc(Cl)cc2)cn1 [Beispiel 9]
- LD50 at 336 h [2]: > 1000 mg/kg

Structure (SMILES): CCN(CC)CCCOC(=O)c1ccc(-c2ccccc2)cn1 [Beispiel 4]
- Th.I. Fusarsäure = 1 [1, 4]: 10,9
- Th.I. Fusarsäure = 1 [1, 5]: 7,2
- Th.I. Fusarsäure = 1 [1, 6]: 6,5
- Th.I. Fusarsäure = 1 [1, 7]: 3,3

Structure (SMILES): CN(C)CCCNC(=O)c1ccc(-c2ccccc2)cn1 [lfd. Nr. 6, 5-Phenylpyridin-2-carbonsäure-(3-dimethylaminopropyl)-amid]
- BP (%-Änderungen) ([1]; 6,4 mg/kg p.o., day 1, 2h, listed as 11): +2%
- BP (%-Änderungen) ([1]; 6,4 mg/kg p.o., day 1, 6h, listed as 11): -1%
- BP (%-Änderungen) ([1]; 6,4 mg/kg p.o., day 1, 24h, listed as 11): +10%
- BP (%-Änderungen) ([1]; 6,4 mg/kg p.o., day 2, 6h, listed as 11): -14%
- BP (%-Änderungen) ([1]; 6,4 mg/kg p.o., day 3, 6h, listed as 11): -10%
- BP (%-Änderungen) ([1]; 6,4 mg/kg p.o., day 3, 24h, listed as 11): +4%
- BP (%-Änderungen) ([1]; 6,4 mg/kg p.o., day 4, 6h, listed as 11): -10%
- BP (%-Änderungen) ([1]; 25,6 mg/kg p.o., day 1, 2h, listed as 11): -7%
- BP (%-Änderungen) ([1]; 25,6 mg/kg p.o., day 1, 6h, listed as 11): -9%
- BP (%-Änderungen) ([1]; 25,6 mg/kg p.o., day 1, 24h): +4%
- BP (%-Änderungen) ([1]; 25,6 mg/kg p.o., day 2, 6h, listed as 11): +3%
- BP (%-Änderungen) ([1]; 25,6 mg/kg p.o., day 3, 6h, listed as 11): -15%
- BP (%-Änderungen) ([1]; 25,6 mg/kg p.o., day 3, 24h, listed as 11): -10%
- Th.I. Fusarsäure = 1 ([1]; day 1 (2h, 6h and 24h Th.W. averaged), normalised to Th.W. Fusarsäure = 1, listed as 11): -25,7
- Th.W. (Therapeutische Wirksamkeit) ([1]; day 1, 2h): 0,9 %-Änderung BP / µmol/kg x 100
- Th.W. (Therapeutische Wirksamkeit) ([1]; day 1, 6h): -11,8 %-Änderung BP / µmol/kg x 100
- Th.W. (Therapeutische Wirksamkeit) ([1]; day 1, 24h): 39,9 %-Änderung BP / µmol/kg x 100
- Th.W. (Therapeutische Wirksamkeit) ([1]; day 2, 6h): -48,0 %-Änderung BP / µmol/kg x 100
- Th.I. Fusarsäure = 1 ([1]; day 2, normalised to Th.W. Fusarsäure = 1, listed as 11): 36,9
- Th.I. Fusarsäure = 1 ([1]; day 3 (6h and 24h Th.W. averaged), normalised to Th.W. Fusarsäure = 1, listed as 11): 8,0
- Th.W. (Therapeutische Wirksamkeit) ([1]; day 3, 6h): -49,9 %-Änderung BP / µmol/kg x 100
- Th.W. (Therapeutische Wirksamkeit) ([1]; day 3, 24h): 23,6 %-Änderung BP / µmol/kg x 100
- Th.I. Fusarsäure = 1 ([1]; day 4 (2h and 6h Th.W. averaged), normalised to Th.W. Fusarsäure = 1, listed as 11): 5,2
- Th.W. (Therapeutische Wirksamkeit) ([1]; day 4, 6h): -36,2 %-Änderung BP / µmol/kg x 100

Structure (SMILES): CCN(CC)CCCOC(=O)c1ccc(-c2ccccc2)cn1 [lfd. Nr. 4, 5-Phenylpyridin-2-carbonsäure-(3-diethylaminopropyl)-ester]
- BP (%-Änderungen) ([1]; 10,0 mg/kg p.o., day 1, 2h): -4%
- BP (%-Änderungen) ([1]; 10,0 mg/kg p.o., day 1, 6h): -10%
- BP (%-Änderungen) ([1]; 10,0 mg/kg p.o., day 1, 24h): -6%
- BP (%-Änderungen) ([1]; 10,0 mg/kg p.o., day 2, 6h): -10%
- BP (%-Änderungen) ([1]; 10,0 mg/kg p.o., day 3, 6h): -13%
- BP (%-Änderungen) ([1]; 10,0 mg/kg p.o., day 3, 24h): -12%
- BP (%-Änderungen) ([1]; 10,0 mg/kg p.o., day 4, 2h): -13%
- BP (%-Änderungen) ([1]; 10,0 mg/kg p.o., day 4, 6h): -12%
- BP (%-Änderungen) ([1]; 20,0 mg/kg p.o., day 1, 2h): -3%
- BP (%-Änderungen) ([1]; 20,0 mg/kg p.o., day 1, 6h): -2%
- BP (%-Änderungen) ([1]; 20,0 mg/kg p.o., day 1, 24h): -6%
- BP (%-Änderungen) ([1]; 20,0 mg/kg p.o., day 2, 6h): -8%
- BP (%-Änderungen) ([1]; 20,0 mg/kg p.o., day 3, 6h): -14%
- BP (%-Änderungen) ([1]; 20,0 mg/kg p.o., day 3, 24h): -5%
- BP (%-Änderungen) ([1]; 20,0 mg/kg p.o., day 4, 2h): -6%
- BP (%-Änderungen) ([1]; 20,0 mg/kg p.o., day 4, 6h): -9%
- Th.I. Fusarsäure = 1 ([1]; day 1 (2h, 6h and 24h Th.W. averaged), normalised to Th.W. Fusarsäure = 1, listed as 5): 16,2
- Th.W. (Therapeutische Wirksamkeit) ([1]; day 1, 2h): -11,8 %-Änderung BP / µmol/kg x 100
- Th.W. (Therapeutische Wirksamkeit) ([1]; day 1, 6h): -23,7 %-Änderung BP / µmol/kg x 100
- Th.W. (Therapeutische Wirksamkeit) ([1]; day 1, 24h): -19,4 %-Änderung BP / µmol/kg x 100
- Th.W. (Therapeutische Wirksamkeit) ([1]; day 2, 6h): -30,2 %-Änderung BP / µmol/kg x 100
- Th.I. Fusarsäure = 1 ([1]; day 2, normalised to Th.W. Fusarsäure = 1, listed as 5): 23,2
- Th.I. Fusarsäure = 1 ([1]; day 3 (6h and 24h Th.W. averaged), normalised to Th.W. Fusarsäure = 1, listed as 5): 22,5
- Th.W. (Therapeutische Wirksamkeit) ([1]; day 3, 6h): -43,1 %-Änderung BP / µmol/kg x 100
- Th.W. (Therapeutische Wirksamkeit) ([1]; day 3, 24h): -31,2 %-Änderung BP / µmol/kg x 100
- Th.I. Fusarsäure = 1 ([1]; day 4 (2h and 6h Th.W. averaged), normalised to Th.W. Fusarsäure = 1, listed as 5): 6,0
- Th.W. (Therapeutische Wirksamkeit) ([1]; day 4, 2h): -34,5 %-Änderung BP / µmol/kg x 100
- Th.W. (Therapeutische Wirksamkeit) ([1]; day 4, 6h): -35,5 %-Änderung BP / µmol/kg x 100

Structure (SMILES): COc1ccccc1N1CCN(CCCNC(=O)c2ccc(-c3ccccc3)cn2)CC1 [lfd. Nr. 5, 5-Phenylpyridin-2-carbonsäure-(3-[4-(2-methoxyphenyl)-piperazinyl-1]-propyl)-amid]
- LD50 p.o. [3]: ≫ 1000 mg/kg
- BP (%-Änderungen) ([1]; 6,4 mg/kg p.o., day 1, 2h): -19%
- BP (%-Änderungen) ([1]; 6,4 mg/kg p.o., day 1, 6h): -14%
- BP (%-Änderungen) ([1]; 6,4 mg/kg p.o., day 1, 24h): -20%
- BP (%-Änderungen) ([1]; 6,4 mg/kg p.o., day 2, 6h): -12%
- BP (%-Änderungen) ([1]; 6,4 mg/kg p.o., day 3, 6h): -11%
- BP (%-Änderungen) ([1]; 6,4 mg/kg p.o., day 3, 24h): -5%
- BP (%-Änderungen) ([1]; 6,4 mg/kg p.o., day 4, 2h): -16%
- BP (%-Änderungen) ([1]; 6,4 mg/kg p.o., day 4, 6h): -24%
- BP (%-Änderungen) ([1]; 25,6 mg/kg p.o., day 1, 2h): -26%
- BP (%-Änderungen) ([1]; 25,6 mg/kg p.o., day 1, 6h): -20%
- BP (%-Änderungen) ([1]; 25,6 mg/kg p.o., day 1, 24h): -14%
- BP (%-Änderungen) ([1]; 25,6 mg/kg p.o., day 2, 6h): -12%
- BP (%-Änderungen) ([1]; 25,6 mg/kg p.o., day 3, 6h): -12%
- BP (%-Änderungen) ([1]; 25,6 mg/kg p.o., day 3, 24h): -3%
- BP (%-Änderungen) ([1]; 25,6 mg/kg p.o., day 4, 2h): -12%
- BP (%-Änderungen) ([1]; 25,6 mg/kg p.o., day 4, 6h): -22%
- Th.I. Fusarsäure = 1 [1, 4]: 70,6
- Th.W. (Therapeutische Wirksamkeit) ([1]; day 1, 2h): -89,8 %-Änderung BP / µmol/kg x 100
- Th.W. (Therapeutische Wirksamkeit) ([1]; day 1, 6h): -66,9 %-Änderung BP / µmol/kg x 100
- Th.W. (Therapeutische Wirksamkeit) ([1]; day 1, 24h): -82,7 %-Änderung BP / µmol/kg x 100
- Th.W. (Therapeutische Wirksamkeit) ([1]; day 2, 6h): -52,8 %-Änderung BP / µmol/kg x 100
- Th.I. Fusarsäure = 1 [1, 6]: 21,1
- Th.W. (Therapeutische Wirksamkeit) ([1]; day 3, 6h): -49,3 %-Änderung BP / µmol/kg x 100
- Th.W. (Therapeutische Wirksamkeit) ([1]; day 3, 24h): -20,3 %-Änderung BP / µmol/kg x 100
- Th.I. Fusarsäure = 1 [1, 7]: 14,7
- Th.W. (Therapeutische Wirksamkeit) ([1]; day 4, 2h): -66,9 %-Änderung BP / µmol/kg x 100
- Th.W. (Therapeutische Wirksamkeit) ([1]; day 4, 6h): -103,9 %-Änderung BP / µmol/kg x 100
